Laboratory results published in patent US8394797B2, “Substituted pyrazole sigma receptor antagonists” (Laboratorios Del Dr. Esteve, S.A., priority 2004, dated 2013).
Structures can show the parent of a compound that is named as a salt.

Key:
σ1-receptor = target: T1, σ1-receptor (Cavia porcellus, UniProt Q60492); assay: Sigma-1 receptor binding, [3H](+)-pentazocine, brain membranes; set-up: species or system guinea pig; conditions: for inhibition at 1 µM: 2.5 h, tested compound at 10^-6 M, [3H](+)-pentazocine 0.5 nM, read-out: binding sigma-1 (*) % of radioactively labeled compound replaced by the tested compound; for Ki: [3H](+)-pentazocine, guinea pig brain membranes, read-out: binding sigma-1 Ki
T1 construct: guinea pig brains were homogenized; from tissue; host or cells: guinea pig brain membranes

σ2-receptor = target: T2, σ2-receptor (Mus musculus, UniProt Q8VD00); assay: Sigma-2 receptor binding, [3H]-DTG, brains from sigma-1 knockout mice; conditions: for inhibition at 1 µM: 2 h, tested compound at 10^-6 M, [3H]-DTG 3 nM, read-out: binding sigma-2 (*) % of radioactively labeled compound replaced by the tested compound; for Ki: [3H]-DTG, sigma-1 knockout mouse brain
T2 construct: brains from sigma receptor type I (sigma-1) knockout mice were homogenized; from tissue; host or cells: brain membranes of sigma-1 knockout mice
T2 sequence (Q8VD00 1-176): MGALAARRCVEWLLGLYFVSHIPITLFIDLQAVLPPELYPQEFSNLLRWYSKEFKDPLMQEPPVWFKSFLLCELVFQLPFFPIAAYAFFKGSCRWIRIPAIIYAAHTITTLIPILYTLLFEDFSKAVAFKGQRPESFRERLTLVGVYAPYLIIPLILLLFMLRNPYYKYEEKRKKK
Protocol: In brief, brains from sigma receptor type I (sigma-1) knockout mice were homogenized in a volume of 10 mL/g tissue net weight of ice-cold 10 mM Tris-HCl, pH 7.4, containing 320 mM sucrose (Tris-sucrose buffer) with a Potter-Elvehjem homogenizer (10 strokes at 500 r.p.m.) The homogenates were then centrifuged at 1000 g for 10 min at 4° C., and the supernatants were saved. The pellets were resuspended by vortexing in 2 mL/g ice-cold Tris-sucrose buffer and centrifuged again at 1000 g for 10 min. The combined 1000 g supernatants were centrifuged at 31000 g for 15 min at 4° C. The pellets were resuspended by vortexing in 3 mL/g 10 mM Tris-HCl, pH 7.4, and the suspension was kept at 25° C. for 15 min.
The assay tubes contained 10 μL of [^3H]-DTG (final concentration of 3 nM), 400 μL of the tissue suspension (5.3 mL/g in 50 mM Tris-HCl, pH 8.0) to a final assay volume of 0.5 mL. Non-specific binding was defined by addition of a final concentration of 1 μM haloperidol. […] Filters were washed with three times with 5 mL volumes of cold Tris-HCl buffer (10 mM, pH 8.0). Following addition of scintillation cocktail samples were allowed to equilibrate overnight.

T1 sequence (Q60492 whole entry): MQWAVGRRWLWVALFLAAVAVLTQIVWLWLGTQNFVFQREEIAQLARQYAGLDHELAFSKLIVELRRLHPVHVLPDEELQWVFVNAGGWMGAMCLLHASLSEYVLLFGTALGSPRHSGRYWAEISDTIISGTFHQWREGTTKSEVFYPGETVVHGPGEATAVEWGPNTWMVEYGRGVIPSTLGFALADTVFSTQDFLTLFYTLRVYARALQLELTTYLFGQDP

Row | Compound | inhibition at 1 µM (σ1-receptor) | Ki (σ1-receptor) | inhibition at 1 µM (σ2-receptor) | Ki (σ2-receptor) | melting point
1 | c1ccc(-n2ncc3c2CCC3CCN2CCCCC2)cc1 (stereo not drawn) [Example 37, 1,4,5,6-tetrahydro-1-phenyl-4-(2-(piperidin-1-yl)ethyl)cyclopenta[c]pyrazole] | 102% | 1.1 nM | 79.9% | – | –
2 | C[C@@H]1CN(CCC2CCCc3c2cnn3-c2ccccc2)C[C@H](C)O1.O=C(O)C(=O)O (stereo partly drawn) [Example 49, cis-4,5,6,7-tetrahydro-4-(2-(2,6-dimethylmorpholin-4-yl)ethyl)-1-phenyl-1H-indazole oxalate] | 101% | 7.6 nM | 94.6% | – | 186.6 to 190 °C
3 | c1ccc(-n2ncc3c2CCC3CCN2CCSCC2)cc1 (stereo not drawn) [Example 97, 1,4,5,6-tetrahydro-1-phenyl-4-[2-(thiomorpholin-4-yl)ethyl]cyclopenta[c]pyrazole oxalate] | 102% | 0.62 nM | – | – | –
4 | O=C(O)C(=O)O.c1ccc(-n2ncc3c2CCCC3CCN2CCOCC2)cc1 (single isomer, unassigned; (+)) [Example 74, (+)-4,5,6,7-tetrahydro-4-(2-(morpholin-4-yl)ethyl)-1-phenyl-1H-indazole oxalate] | – | – | – | – | 175 to 176 °C
5 | C(/CN1CCC(c2ccccc2)C1)=C1/CCCc2c1cnn2-c1ccccc1.O=C(O)C(=O)O (stereo not drawn) | – | – | – | – | 178 to 181 °C
6 | O=C(O)C(=O)O.c1ccc(-n2ncc3c2CCC3CCN2CCc3ccccc3C2)cc1 (stereo not drawn) [Example 44, 1,2,3,4-tetrahydro-2-(2-(1,4,5,6-tetrahydro-1-phenylcyclopenta[c]pyrazol-4-yl)ethyl)isoquinoline oxalate] | 106% | 2 nM | 99.4% | 159 nM | 200.5 to 203 °C
7 | C(/CN1CCC(c2ccccc2)C1)=C1/CCCc2c1cnn2-c1ccccc1 (stereo not drawn) [Example 24, (E)-4,5,6,7-tetrahydro-1-phenyl-4-(2-(3-phenylpyrrolidin-1-yl)ethylidene)-1H-indazole] | 100% | 1.1 nM | 103% | 49.5 nM | –
8 | Clc1ccc(-n2ncc3c2CCCC3CCN2CCC(c3ccccc3)CC2)cc1Cl (stereo not drawn) (as salt: oxalate) [Example 4, 1-(3,4-dichlorophenyl)-4,5,6,7-tetrahydro-4-(2-(4-phenylpiperidin-1-yl)ethyl)-1H-indazole oxalate] | – | – | – | – | 133 to 134 °C
9 | O=C(O)C(=O)O.c1ccc(-n2ncc3c2CCC3CCN2CCOCC2)cc1 (stereo not drawn) [Example 31, 1,4,5,6-tetrahydro-4-(2-(morpholin-4-yl)ethyl)-1-phenylcyclopenta[c]pyrazole oxalate] | 101% | 1.2 nM | 88.7% | 17.5 nM | 159 to 161.8 °C
10 | Fc1ccc(-n2ncc3c2CCCC3CCN2Cc3ccccc3C2)cc1.O=C(O)C(=O)O (stereo not drawn) | – | – | – | – | 176 to 179 °C
11 | Fc1ccc(-n2ncc3c2CCCC3CCN2CCOCC2)cc1.O=C(O)C(=O)O (stereo not drawn) [Example 66, 1-(4-fluorophenyl)-4,5,6,7-tetrahydro-4-(2-(morpholin-4-yl)ethyl)-1H-indazole oxalate] | 98.1% | 2.4 nM | – | – | 148 to 151 °C
12 | C(/CN1Cc2ccccc2C1)=C1/CCCc2c1cnn2-c1ccccc1 | – | – | – | – | 130 to 131 °C
13 | C(/CN1CCC(c2ccccc2)CC1)=C1/CCCc2c1cnn2-c1ccccc1 [Example 17, (E)-4,5,6,7-tetrahydro-1-phenyl-4-(2-(4-phenylpiperidin-1-yl)ethylidene)-1H-indazole] | 100% | 2.5 nM | 83.8% | 186 nM | –
14 | O=C(O)C(=O)O.c1ccc(N2CCN(CCC3CCCc4c3cnn4-c3ccccc3)CC2)cc1 (stereo not drawn) | – | – | – | – | 177 to 180 °C
15 | Fc1ccc(-n2ncc3c2CCCC3CCN2CCC(c3ccccc3)CC2)cc1 (stereo not drawn) [Example 72, 1-(4-fluorophenyl)-4,5,6,7-tetrahydro-4-(2-(4-phenylpiperidin-1-yl)ethyl)-1H-indazole] | – | – | – | – | 93 to 94.5 °C
16 | C(/CN1CCc2ccccc2C1)=C1/CCCc2c1cnn2-c1ccccc1.O=C(O)C(=O)O | – | – | – | – | 217 to 218 °C
17 | Cn1ncc2c1CCCC2CCN1CCOCC1.O=C(O)C(=O)O (stereo not drawn) | – | – | – | – | 137.7 to 139.3 °C
18 | C(/CN1CCCCC1)=C1/CCCc2c1cnn2-c1ccccc1 [Example 27, (E)-4,5,6,7-tetrahydro-1-phenyl-4-(2-(piperidin-1-yl)ethylidene)-1H-indazole] | 99.6% | 7.5 nM | 77% | – | –
19 | CC1CCN(CCC2CCc3c2cnn3-c2ccccc2)CC1 (stereo not drawn) [Example 99, 1,4,5,6-tetrahydro-4-(2-(4-methylpiperidin-1-yl)ethyl)-1-phenylcyclopenta[c]pyrazole oxalate] | 102% | 1.5 nM | – | – | –
20 | c1ccc(-n2ncc3c2CCCC3CCN2CCOCC2)cc1 (stereo not drawn) (as salt: oxalate) [Example 2, 4,5,6,7-tetrahydro-4-(2-(morpholin-4-yl)ethyl)-1-phenyl-1H-indazole oxalate] | – | – | – | – | 150 to 151 °C
21 | c1ccc(-n2ncc3c2CCC3CCN2CCCC2)cc1 (stereo not drawn) [Example 40, 1,4,5,6-tetrahydro-1-phenyl-4-(2-(pyrrolidin-1-yl)ethyl)cyclopenta[c]pyrazole oxalate] | 101% | 3.5 nM | 97.3% | – | –
22 | O=C(O)C(=O)O.c1ccc(CN2CCN(CCC3CCc4c3cnn4-c3ccccc3)CC2)cc1 (stereo not drawn) | – | – | – | – | 215 to 218 °C

Further lines, with some results ahead:

Row | inhibition at 1 µM (σ1-receptor) | Ki (σ1-receptor) | inhibition at 1 µM (σ2-receptor) | Ki (σ2-receptor) | Compound | melting point
23 | 106% | 3.9 nM | 104% | – | CN(CCC1CCc2c1cnn2-c1ccccc1)Cc1ccccc1 (stereo not drawn) [Example 52, N-benzyl-2-(1,4,5,6-tetrahydro-1-phenylcyclopenta[c]pyrazol-4-yl)-N-methylethanamine] | –
24 | 103% | 2.6 nM | 99.3% | 21.7 nM | CN(CCC1CCCc2c1cnn2-c1ccc(F)cc1)Cc1ccccc1 (stereo not drawn) [Example 69, N-benzyl-2-(1-(4-fluorophenyl)-4,5,6,7-tetrahydro-1H-indazol-4-yl)-N-methylethanamine] | –
25 | 105% | 8.7 nM | 100% | – | CN(CCC1CCCc2c1cnn2-c1ccccc1)Cc1ccccc1 (stereo not drawn) [Example 54, N-benzyl-2-(4,5,6,7-tetrahydro-1-phenyl-1H-indazol-4-yl)-N-methylethanamine] | –
26 | 100% | 10.6 nM | 98% | 316 nM | Clc1ccc(-n2ncc3c2CCCC3CCN2CCC(c3ccccc3)CC2)cc1Cl (stereo not drawn) [Example 4, 1-(3,4-dichlorophenyl)-4,5,6,7-tetrahydro-4-(2-(4-phenylpiperidin-1-yl)ethyl)-1H-indazole oxalate] | –
27 | 103% | 1.9 nM | – | – | CC1CCN(CCC2CCCc3c2cnn3-c2ccccc2)CC1 (stereo not drawn) [Example 94, 4,5,6,7-Tetrahydro-4-(2-(4-methylpiperidin-1-yl)ethyl)-1-phenyl-1H-indazole oxalate] | –
28 | 100% | 16.2 nM | 108% | 14.4 nM | Fc1ccc(-n2ncc3c2CCCC3CCN2Cc3ccccc3C2)cc1 (stereo not drawn) [Example 70, 1-(4-fluorophenyl)-4,5,6,7-tetrahydro-4-(2-(isoindolin-2-yl)ethyl)-1H-indazole] | –
